Values of other authors as cited in US8431577B2, “Crystalline form of eszopiclone, composition, preparation and uses thereof” (Tianjin Tasly Group Co., Ltd., priority 2008, dated 2013).

Conditions: comparative acute toxicity research; cited from earlier work

CN1CCN(C(=O)O[C@H]2c3nccnc3C(=O)N2c2ccc(Cl)cn2)CC1 [S-zopiclone, (+)-(S)-(4-methylpiperazine-1-carboxylate)(6-(5-chloropyridinyl-2-yl)-7-carbonyl-6,7-dihydro-5-H-pyrrolo[3,4-b]pyrazin-5-yl ester)]
acute toxicity compared with racemic zopiclone: low toxicity than that of the racemic zopiclone
